Measurements reported in US20120010148A1, “COMBINATION THERAPIES USING NAP” (ALLON THERAPEUTICS INC., priority 2008, published 2012).
“Also recorded” adds a separate entry of the source.

Experiments:
normal aging rats = settings: intranasal administration; cited from earlier work
STOP+/− mice [1] = assay: Object recognition and discrimination test; assay type: in vivo, mouse
Description: The NAP vehicle solution (termed DD), included the following ingredients (per milliliter): 7.5 mg of NaCl, 1.7 mg of citric acid monohydrate, 3 mg of disodium phosphate dihydrate, and 0.2 mg of benzalkonium chloride solution (50%) (Alcalay R N et al., Neurosci Lett, 361(1-3): 128-131 (2004)). NAP or vehicle solution (DD) was administered to mice hand-held in a semisupine position with nostrils facing the investigator. A pipette tip was used to administer 2.5 μl/nostril. The mouse was hand-held until the solution was totally absorbed (10 s). […]
The test is based on visual discrimination between two different objects in an arena of 30 cm×40 cm. […] One hour after the daily intranasal NAP treatment, or clozapine injection, each male mouse was exposed to two identical objects for 5 minutes and the time spent sniffing/touching each object was measured (first daily session). Three hours later, the mice were exposed to one familiar and one novel object for 3 minutes and the time spent sniffing/touching each object was measured again (second session, measuring visual memory). The data was analyzed using two different methods. The first method measured the time spent exploring an object, novel or familiar, and compared the two. The second method evaluated the discrimination capacity of the mice between the novel object and the familiar object using the following formula. […]

[2] = system: Rat pheochromocytoma cells (PC12); assay: Serum-deprivation survival of PC12 cells, MTS viability assay; assay type: cell-based
Description: The survival-promoting effects of galantamine (an acetylcholine-esterase inhibitor, or AcEI), NAP, and their combinatorial treatment were assessed in cell cultures. Cell culture method was adapted from Calderon et al., J Neurosci Res 56, 620-631 (1999).
Rat pheochromocytoma cells (PC12) were grown in Dulbecco's modified Eagle's medium (DMEM) supplemented with 8% fetal calf serum, 8% horse donor serum, 2 mm L-glutamine, and 1% penicillin-streptomycin solution.
For the experiments, cells were harvested, re-suspended, and seeded in 96-well plates at a concentration of 1.5×10^4 cells/well. Cells were pretreated with NAP and Galantamine [Galantamine (0.1, 0.5, 1, 10 μM); NAP (10^−8M, 10^−1° M, 10^−12M, 10^−15M)] 3 hours prior to serum deprivation and during serum deprivation. The assay for cell viability was performed 48 hours after serum deprivation. Calibration method is described below.
Culture medium was replaced by fresh medium without serum, containing NAP and Galantamine. Cells were incubated for 48 hours and then subject to MTS viability assay.
PC12 cells were seeded and treated as mentioned above without any drugs for 24 hours, 48 hours, and 72 hours. MTS results are represented by the percentage of viable cells from the serum deprived treatment vs. control treatment.

[3] = system: Human SH-SY5Y neuroblastoma; assay: Clozapine-induced cell death in SH-SY5Y cells, MTS assay; assay type: cell-based; settings: 24 hours
Description: Clozapine, a widely used anti psychotic drug may be associated with increased cell mortality. It was not known, however, whether NAP ([…], SEQ ID NO:2) treatment would inhibit clozapine associated neuronal death. To address this question and validate the efficiency of using a NAP-clozapine combination drug candidate, an experimental test system in cell culture was established (Heiser et al., Journal of Psychopharmacology 21(8):851-856 (2007)). Human SH-SY5Y neuroblastoma supplemented with 15% fetal calf serum (FCS) (Beit-Haemek, Israel), 1% penicillin-streptomycin, and 1% glutamine were incubated in a 5% CO2 atmosphere. Thirty-six thousand cells/well (in a 96 well plates) were plated 24 hours prior to the clozapine or NAP treatment. Clozapine (CLZ) was obtained from Sigma Chemicals (Sigma, Israel). Thirty-six thousand cells per well (in at least 6 replicate wells) were exposed to clozapine (CLZ, 20 μg/ml) or clozapine (CLZ, 20 μg/ml)+NAP or NAP alone (10^−15M-10^−10 M) for 24 hours at 37° C. Drug and control solutions were dissolved in ethanol. Measurement of metabolic activity and survival was determined by non-radioactive cell proliferation assay (MTS) (Promega, USA) and evaluated by an ELISA-reader at 490 nm wavelength.

ischemic injury = settings: after ischemic injury; cited from earlier work
cell cultures = settings: cited from earlier work
STOP+/− mice [4] = assay: Social recognition test; assay type: in vivo; settings: 8-month-old STOP+/− mice; NAP 0.5 microgram/mouse/day, clozapine 3 mg/kg/day, FIG. 16
Description: In the social recognition test, 8-month-old mice (STOP+/−) were habituated for 20 minutes in a cage and then exposed to a new juvenile mouse (1.5-month old) for one minute—followed by a 30-minute interval and another 1 minute exposure four times (familiarizing the test subject with the juvenile mouse). The fifth exposure session included a novel juvenile mouse. Time spent interacting with the juvenile mouse was recorded.

[5] = system: TNF-α, interleukin-16 (IL-16), and IL-12 in macrophages; settings: cited from earlier work

CC[C@H](C)[C@H](NC(=O)[C@H](CO)NC(=O)[C@@H](NC(=O)[C@@H]1CCCN1C(=O)[C@H](C)NC(=O)[C@@H](N)CC(N)=O)C(C)C)C(=O)N1CCC[C@H]1C(=O)N[C@@H](CCC(N)=O)C(=O)O [NAP]
performance in the Morris water maze (normal aging rats): improved performance
object recognition / discrimination of novel object (STOP+/− mice [1]; Example 3, STOP+/− male mice, 3 h after first session, NAP intranasal 0.5 μg/mouse/day or clozapine 10 mg/kg IP, FIG. 9): ameliorated completely the cognitive impairment; also recorded: significantly beneficial
object recognition, discrimination capacity D2 (memory scores) (STOP+/− mice [1]; Example 4, STOP+/− mice, NAP 0.5 microgram/mouse/day, clozapine 3 mg/kg/day, versus pooled controls, FIG. 12): effective to increase memory scores
protection against extensive cell death ([2]; >40% cell death, compared against cultures supplemented with serum, FIG. 7): Neither NAP nor galantamine protected
protection against serum deprivation ([2]; NAP alone, FIG. 5): provided protection
effect on clozapine induced cell death ([3]; NAP 10^−15M with clozapine 20 μg/ml, FIG. 1): reversed
cell mortality with NAP alone ([3]; NAP alone 10^−15M-10^−10 M, FIG. 2): does not affect cell mortality; also recorded: did not affect cell mortality
infarct volume and motor function deficits (ischemic injury): reduced infarct volume and motor function deficits
neuroprotective activity against a wide variety of toxins (cell cultures): neuroprotective activity at femtomolar concentrations
social recognition behavior (STOP+/− mice [4]): partially ameliorated
key inflammatory cytokines TNF-α, IL-16 and IL-12 [5]: downregulates
